Consider 2 compounds from patent publication US11571407B2, “Bicalutamide analogs or (S)-bicalutamide as exocytosis activating compounds for use in the treatment of a lysosomal storage disorder or glycogenosis” (BCN PEPTIDES, S.A., priority 2013, dated 2023).

For one data set, the system named is androgen receptors. To be noted: cited from earlier work.
In data set [1] the test system is fibroblasts from patients affected by different lysosomal storage diseases. As to the kind of experiment: Determination of glycosaminoglycans (GAGs), 1,9-dimethylmethylene blue (DMB) assay. It counts as cell-based, human. To be noted: for Decrease of GAGs (%), Median: Table 5 median over the patients' fibroblasts; for Decrease of GAGs (%), Median / Decrease of GAGs (%): 72 h; for decrease of glycosaminoglycans (in words): fibroblasts from seven patients, 50 and 100 μM. Here is the method:
Fibroblasts from thirteen patients affected by seven different lysosomal storage diseases (Fabry, Gaucher, Hurler, Niemann-Pick type A/B, Sanfilippo A, Sanfilippo B and Tay-Sachs) were cultured in DMEM (Dulbecco's modified Eagles medium) with 10% fetal bovine serum and in the presence of antibiotics (penicillin and streptomycin), at 37° C. with 5% CO2. All reagents were purchased from PAA Laboratories (Velizy-Villacoublay, France). The fibroblasts of the patients were selected on the basis of availability of fibroblasts and measurable residual activity. The use of human samples was approved by the Ethical Committee of Hospital Clinic, Barcelona
Glycobiology. […] The fibroblasts were cultured in triplicate in 6-well plates and they were harvested 72 hours after treatment. DMB absorbance was measured in duplicate at 656 nm with a microplate reader (POLARstar Omega, BMG LABTECH, Offenburg, Germany).
Fibroblasts from three patients affected by Sanfilippo B disease and one patient affected by Hurler disease were treated with increasing concentrations of bicalutamide (racemic mixture at increasing concentrations of 0.01, 0.1, 1, 10 and 100 μM). Glycosaminoglycans (GAGs) levels were quantified with the 1,9-dimethylmethylene blue (DMB) assay.
Fibroblasts from seven patients affected by different diseases derived from lysosomal storage (three Sanfilippo B disease patients with different genotypes, one Sanfilippo A disease patient, one Tay-Sachs disease patient, one Niemann-Pick type A/B disease patient and one Hurler disease patient) were independently treated with different concentrations of (R)- and (S)-bicalutamide (50 and 100 μM).

For data set [2] the following is noted: cited from earlier work.
The mark [3] stands for this setting: Table 5 patient 1, Sanfilippo B fibroblasts, 50 μM.
[4] abbreviates: Table 5 patient 1, Sanfilippo B fibroblasts, 100 μM.
The mark [5] stands for this setting: Table 5 patient 2, Sanfilippo B fibroblasts, 50 μM.
Where [6] appears, read: Table 5 patient 2, Sanfilippo B fibroblasts, 100 μM.
The mark [7] stands for this setting: Table 5 patient 3, Sanfilippo B fibroblasts, 50 μM.
[8] abbreviates: Table 5 patient 3, Sanfilippo B fibroblasts, 100 μM.
Where [9] appears, read: Table 5 patient 4, Sanfilippo A fibroblasts, 50 μM.
Setting [10] is: Table 5 patient 4, Sanfilippo A fibroblasts, 100 μM.
Setting [11] is: Table 5 patient 5, Tay-Sachs fibroblasts, 50 μM.
[12] abbreviates: Table 5 patient 5, Tay-Sachs fibroblasts, 100 μM.
The mark [13] stands for this setting: Table 5 patient 6, Niemann-Pick AB fibroblasts, 50 μM.
The mark [14] stands for this setting: Table 5 patient 6, Niemann-Pick AB fibroblasts, 100 μM.
[15] abbreviates: Table 5 patient 7, Hurler fibroblasts, 50 μM.
Where [16] appears, read: Table 5 patient 7, Hurler fibroblasts, 100 μM.

Marks after values point to notes of the source that are not given here.

As for `C[C@@](O)(CS(=O)(=O)c1ccc(F)cc1)C(=O)Nc1ccc(C#N)c(C(F)(F)F)c1` [(S)-BICALUTAMIDE (1), (2S)-N-[4-cyano-3-(trifluoromethyl)phenyl]-3-[(4-fluorophenyl)sulfonyl]-2-hydroxy-2-methylpropanamide], the anti-androgenic activity entry with androgen receptors is “inactive”. The entries for the “Decrease of GAGs (%), Median” value in data set [1] (50 μM) and in data set [1] (100 μM) were 18* % and 38* %, respectively. Also, the “Decrease of GAGs (%)” value is reported as “N.S” in data set [1] (setting [3]); 22* % in data set [1] (setting [4]); 18* % in data set [1] (setting [5]); 39* % in data set [1] (setting [6]); 15* % in data set [1] (setting [7]); 20* % in data set [1] (setting [8]). The “Decrease of GAGs (%)” value is reported as 27.4* % in data set [1] (setting [9]); 56* % in data set [1] (setting [10]); 31* % in data set [1] (setting [11]); 60* % in data set [1] (setting [12]); 24* % in data set [1] (setting [13]); 38* % in data set [1] (setting [14]). Further, the “Decrease of GAGs (%)” value in data set [1] (setting [15]) and in data set [1] (setting [16]) was 0% in each case. Further, in data set [1], the “decrease of glycosaminoglycans (in words)” value was “significant and dose-dependent decrease of glycoaminoglicans”.
Consider `C[C@@](O)(CS(=O)(=O)c1ccc(F)cc1)C(=O)Nc1ccc(C#N)c(C(F)(F)F)c1` (single isomer, unassigned) [(R)-BICALUTAMIDE (2)], for which the anti-androgenic activity result in the data set on androgen receptors is recorded as “exclusively found in the (R)-enantiomer”. Besides, in data set [2] (in vivo), the “half life in plasma” value is on record as 1 week. Further, the “concentrations in plasma at the steady state relative to (S)-bicalutamide” value in data set [2] (steady state, (R)- versus (S)-bicalutamide) is given as 100 times. Also, the “Decrease of GAGs (%), Median” value in data set [1] (50 μM) is 0%; in data set [1] (100 μM), 25* %. Besides, the “Decrease of GAGs (%)” value in data set [1] (setting [3]) is on record as “N.S”; in data set [1] (setting [4]), 25* %; in data set [1] (setting [5]) it was “N.S”; in data set [1] (setting [6]) it was “N.S”; in data set [1] (setting [7]) it was 0%; in data set [1] (setting [8]), 33* %. Also, the “Decrease of GAGs (%)” value in data set [1] (setting [9]) is recorded as 0%; in data set [1] (setting [10]) it was 0%; in data set [1] (setting [11]) it was “N.S”; in data set [1] (setting [12]) it was 45* %; in data set [1] (setting [13]), “N.S”; in data set [1] (setting [14]), 41* %. In addition, the entries for the “Decrease of GAGs (%)” value in data set [1] (setting [15]) and in data set [1] (setting [16]) were 0% and 16* %, respectively. In data set [1], the “decrease of glycosaminoglycans (in words)” value was “a decrease of GAGs levels in some cases, but with a lower intensity and not universally”.
